Data published in patent US20070275147A1, “SYNTHETIC SWEETENER COMPOSITIONS WITH IMPROVED TEMPORAL PROFILE AND/OR FLAVOR PROFILE, METHODS FOR THEIR FORMULATION, AND USES” (THE COCA-COLA COMPANY, priority 2005, published 2007).

What was measured:
[1] = system: panel of experts in the sensory evaluation of foods and beverages; assay: Sensory evaluation of sweetness onset and sweetness linger by expert panel; assay type: in vivo, human; parameters: key to Sweetness Linger: 0: no sweetness linger; 1: very slight sweetness linger; 2: slight sweetness linger; 3: moderate sweetness linger; 4: moderately high sweetness linger; 5: high sweetness linger; key to Sweetness Onset: 1: quick onset; 2: moderate onset; 3: slow onset; settings: for Sweetness Linger: rating scale 0-5, sweetness 2-3 min after water rinse, for ranges the lowest rating of all levels is reported; for Sweetness Onset: rating scale 1-3, ca. 10 mL sample tasted and expectorated, sucrose and neotame controls for calibration
Description: An exemplary method of sensory evaluation is provided in the following protocol, similar to that described hereinabove. In this test protocol, none of the samples were swallowed. All samples were expectorated and the mouth was rinsed with water after the tasting. In step 1, the 10% sucrose control sample was tasted by distributing ca. 10 mL of sample quickly throughout the oral cavity, wherein the maximal “Sweetness Intensity” was measured. This intensity is defined as a 10 on a 0-15 scale where 0 is defined as no perceptible sweetness and 15, the sweetness of 15% sucrose. The “Overall Quality” of the taste was also measured in the sucrose control and was defined as a 6 on a 1-9 scale. Immediately upon sensing maximal sweetness, the sample was expectorated, the mouth was rinsed with water and the rate of sweetness decay (“Sweetness Linger”) and “Sweetness Onset” were measured, where attention was focused on the sweetness 2-3 min after the water rinse. The sweetness linger was rated by a panel of experts in the sensory evaluation of foods and beverages using the following scale: 0=no sweetness linger, 1=very slight sweetness linger, 2=slight sweetness linger, 3=moderate sweetness linger, 4=moderately high sweetness linger, 5=high sweetness linger. The sweetness onset was rated by a panel of experts using the following scale: 1=quick onset, 2=moderate onset, 3 slow onset. After sample tasting was complete, a salty oyster cracker was chewed followed by a water rinse, and at least 5 minutes followed before tasting the next sample.
The “Sweetness Linger” rating for sucrose observed by this protocol was defined as 0 and the “Sweetness Onset” was defined as 1. The Sweetness Onset and Sweetness Linger of a neotame control sample were defined as 3 and 5, respectively.
Following calibration with the sucrose and neotame control samples, the experimental samples were tasted by the same protocol, always allowing sufficient time between samples to ensure re-equilibration of the sensory system. Re-tasting of control samples during the course of the experiment was allowed and encouraged.
The comparison taste test was performed between two controls and addition of sweet taste improving additive on the onset and/or sweetness linger.
In Examples A1-A7, where there are ranges provided, the beverage samples were made with 5-7 levels from the top to the bottom of the range, using a 1:1 dilution of the corresponding sweet taste improving compositions. The sweetness linger rating reported was the most sugar-like in sweetness linger (the lowest numerical value) attained of all the samples (i.e., the shortest sweetness linger).

Osmolarity of solution = assay type: physicochemical; settings: sucrose at 10%
Description: Average concentrations of inorganic ions present in saliva, which are responsible for nearly all of the osmolarity of saliva, are as illustrated in Table 1 below. From the data shown, it is clear that saliva typically has an osmolarity of 70 mOsM. Sucrose at 10%, however, is 292 mOsM, more than 4-fold higher, and therefore will cause significant shrinkage of taste bud cell volume and signaling to the central nervous system (CNS). Osmolarity refers to the measure of osmoles of solute per liter of solution, wherein osmole is equal to the number of moles of osmotically active particles in an ideal solution (e.g., a mole of glucose is one osmole), whereas a mole of sodium chloride is two osmoles (one mole of sodium and one mole of chloride). Thus, in order to improve in the quality of taste of synthetic sweeteners, the osmotically active compounds or the compounds which impart osmolarity must not introduce significant off taste to the formulation.

| osmolarity (Osmolarity of solution) [mOsM] | SMILES | Sweetness Linger [1] | Sweetness Onset [1] | Sweetness Linger ([1]; listed as sugar) |
| --- | --- | --- | --- | --- |
| – | COC(=O)[C@H](Cc1ccccc1)NC(=O)[C@H](CC(=O)O)NCCC(C)(C)C [neotame] | 5 | 3 | – |
| 292 | OC[C@H]1O[C@@](CO)(O[C@H]2O[C@H](CO)[C@@H](O)[C@H](O)[C@H]2O)[C@@H](O)[C@@H]1O [sucrose] | 0 | 1 | 1 |
